pIC50: −log10 of the molar value.
Legend:
PC3 cells = experiment: XTT assay for cell viability, PC3 cells; type: cell-based, human; details: Homo sapiens, PC-3, cell viability
Summary of the method: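 PC3 cells seeded at 1000 cells/well, grown 24 h, then exposed to serial dilutions of compound for 96 h. Viability read by XTT dye at 37° C, absorbance 465 nm. EC50 from sigmoidal dose-response fit.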

[1] = biological target: T1, PI3Kα (wild-type), P110/P85α (Homo sapiens, UniProt P42336); experiment: PI3 Kinase TR-FRET assay, PI3Kα (wild-type); type: biochemical
T1 construct: made in house; host or cells: SF9 insect cells
T1 sequence (P42336 whole entry): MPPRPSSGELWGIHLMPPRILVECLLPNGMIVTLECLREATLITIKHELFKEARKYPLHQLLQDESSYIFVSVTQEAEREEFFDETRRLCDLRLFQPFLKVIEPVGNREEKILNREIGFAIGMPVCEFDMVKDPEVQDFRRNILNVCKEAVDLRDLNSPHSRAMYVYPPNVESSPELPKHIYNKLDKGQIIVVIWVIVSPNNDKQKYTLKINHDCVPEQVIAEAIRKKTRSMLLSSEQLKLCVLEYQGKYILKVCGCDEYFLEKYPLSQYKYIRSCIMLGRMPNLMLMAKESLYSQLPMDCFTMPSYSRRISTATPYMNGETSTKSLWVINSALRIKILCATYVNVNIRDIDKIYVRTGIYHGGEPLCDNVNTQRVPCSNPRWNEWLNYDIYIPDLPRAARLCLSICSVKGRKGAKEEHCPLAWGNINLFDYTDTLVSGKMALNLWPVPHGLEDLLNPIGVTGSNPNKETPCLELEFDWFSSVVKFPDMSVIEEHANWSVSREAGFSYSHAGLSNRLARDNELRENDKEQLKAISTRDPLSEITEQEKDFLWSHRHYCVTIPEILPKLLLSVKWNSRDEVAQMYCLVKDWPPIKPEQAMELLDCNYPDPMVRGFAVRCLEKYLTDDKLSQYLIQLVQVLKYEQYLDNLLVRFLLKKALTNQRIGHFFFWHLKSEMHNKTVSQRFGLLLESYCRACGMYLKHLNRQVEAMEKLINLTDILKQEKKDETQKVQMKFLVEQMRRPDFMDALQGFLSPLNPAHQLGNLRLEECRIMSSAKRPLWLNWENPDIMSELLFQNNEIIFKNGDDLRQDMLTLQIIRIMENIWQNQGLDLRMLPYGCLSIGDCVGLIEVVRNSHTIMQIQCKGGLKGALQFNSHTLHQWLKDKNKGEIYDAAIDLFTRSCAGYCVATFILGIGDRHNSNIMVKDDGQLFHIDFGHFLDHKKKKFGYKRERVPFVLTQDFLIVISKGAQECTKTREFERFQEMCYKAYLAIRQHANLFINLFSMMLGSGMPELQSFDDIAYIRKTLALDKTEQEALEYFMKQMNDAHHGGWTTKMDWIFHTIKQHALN
T1 sequence (P27986 whole entry partner): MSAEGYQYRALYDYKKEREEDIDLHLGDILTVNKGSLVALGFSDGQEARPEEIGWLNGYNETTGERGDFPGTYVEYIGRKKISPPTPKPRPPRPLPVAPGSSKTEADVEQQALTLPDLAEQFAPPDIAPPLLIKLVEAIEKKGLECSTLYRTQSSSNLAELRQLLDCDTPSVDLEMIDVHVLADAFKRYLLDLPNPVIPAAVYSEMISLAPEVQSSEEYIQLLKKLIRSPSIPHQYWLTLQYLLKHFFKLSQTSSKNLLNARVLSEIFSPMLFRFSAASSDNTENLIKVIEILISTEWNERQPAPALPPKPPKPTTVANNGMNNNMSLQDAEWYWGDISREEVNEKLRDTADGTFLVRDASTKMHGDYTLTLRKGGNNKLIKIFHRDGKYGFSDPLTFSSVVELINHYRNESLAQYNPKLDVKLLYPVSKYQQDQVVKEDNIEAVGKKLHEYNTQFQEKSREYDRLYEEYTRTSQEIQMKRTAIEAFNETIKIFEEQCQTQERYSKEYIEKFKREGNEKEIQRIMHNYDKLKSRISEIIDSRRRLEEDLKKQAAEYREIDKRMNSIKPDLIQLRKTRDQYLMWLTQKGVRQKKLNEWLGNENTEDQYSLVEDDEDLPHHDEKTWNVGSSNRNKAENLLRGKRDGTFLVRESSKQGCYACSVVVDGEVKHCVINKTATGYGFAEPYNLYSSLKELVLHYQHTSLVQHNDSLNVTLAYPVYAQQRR
Summary of the method: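 Sf9-expressed His-purified P110/P85α (5 ng) preincubated 60 min RT with compound and PIP2 in buffer with 40 mM MgCl2, 5 mM DTT; reaction started with ATP (PIP2 and ATP both 10 μM), 30 min RT. PIP3 detected by TR-FRET displacement, 665/615 nm ratio; IC50 from dose-response curves.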

mTOR kinase = biological target: T2, mTOR kinase (Homo sapiens, UniProt P42345); experiment: mTOR kinase TR-FRET assay; type: biochemical; details: read-out: mTO R
T2 construct: purchased Millipore, USA
Summary of the method: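 Compounds preincubated 60 min with mTOR (5 ng) in HEPES pH 7.5, EGTA, MnCl2; ULight-p70 S6K Thr389 peptide (50 nM) and ATP (20 μM) then added, 60 min at room temperature. EDTA-stopped, Eu-anti-phospho antibody detection by TR-FRET (665/615 nm); IC50 from variable-slope sigmoidal fit.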

PI3 kinase isoform δ = PI3 kinase isoform δ (Homo sapiens, UniProt O00329); experiment: PI3 Kinase TR-FRET assay, isoform δ; type: biochemical; details: read-out: inhibition of PI3 kinase isoform δ, IC50
Sequence of PI3 kinase isoform δ (O00329 whole entry, the tested form may be a part, canonical isoform): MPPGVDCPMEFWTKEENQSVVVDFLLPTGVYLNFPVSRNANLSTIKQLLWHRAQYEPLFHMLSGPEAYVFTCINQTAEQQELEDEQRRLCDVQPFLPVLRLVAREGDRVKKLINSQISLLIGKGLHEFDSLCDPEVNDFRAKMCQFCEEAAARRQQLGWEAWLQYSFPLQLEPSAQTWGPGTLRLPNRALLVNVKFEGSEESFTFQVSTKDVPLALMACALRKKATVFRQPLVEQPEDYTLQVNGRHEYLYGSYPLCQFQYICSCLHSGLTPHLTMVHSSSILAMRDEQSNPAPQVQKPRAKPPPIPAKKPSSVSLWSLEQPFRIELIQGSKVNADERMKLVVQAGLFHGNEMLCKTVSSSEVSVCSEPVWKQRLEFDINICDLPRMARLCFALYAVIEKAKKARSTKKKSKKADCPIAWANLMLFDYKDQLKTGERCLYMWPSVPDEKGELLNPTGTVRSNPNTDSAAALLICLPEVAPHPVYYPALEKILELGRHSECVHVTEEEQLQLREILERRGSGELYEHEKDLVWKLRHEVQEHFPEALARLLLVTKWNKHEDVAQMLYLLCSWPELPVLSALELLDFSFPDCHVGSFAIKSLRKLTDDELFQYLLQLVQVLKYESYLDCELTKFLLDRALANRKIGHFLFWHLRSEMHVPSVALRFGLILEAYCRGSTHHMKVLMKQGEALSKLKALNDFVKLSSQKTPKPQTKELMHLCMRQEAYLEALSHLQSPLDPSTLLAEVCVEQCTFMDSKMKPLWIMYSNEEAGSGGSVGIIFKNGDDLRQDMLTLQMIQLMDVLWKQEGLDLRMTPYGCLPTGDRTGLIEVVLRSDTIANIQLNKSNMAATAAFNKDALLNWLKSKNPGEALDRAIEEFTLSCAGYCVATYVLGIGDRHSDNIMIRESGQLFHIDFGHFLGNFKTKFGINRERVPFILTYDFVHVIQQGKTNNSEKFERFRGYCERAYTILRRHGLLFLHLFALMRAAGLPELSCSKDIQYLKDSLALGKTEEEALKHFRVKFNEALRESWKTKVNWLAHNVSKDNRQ
Sequence of PI3 kinase isoform δ (P27986 whole entry partner, the tested form may be a part, canonical isoform): as the sequence (P27986 whole entry partner) above
Protocol: The ability of compounds of the invention to inhibit PI3K activity was determined in a homogeneous TR-FRET assay using a PI3K assay kit (Millipore, USA; cat #33-016) according to manufacturer's instructions. PI3-Kinases (isoforms α, β, γ and δ) catalyze the phosphorylation of phosphatidylinositol, PIP2 to PIP3 in the presence of ATP and Mg^2+. The PIP3 product is detected by displacement of biotin-PIP3 from an energy transfer complex consisting of Europium labeled anti-GST monoclonal antibody, a GST-tagged PH domain, biotinylated PIP3 and Streptavidin-APC. Excitation of Europium in the complex results in an energy transfer to the APC and a fluorescence emission at 665 nm. The PIP3 product displaces biotin-PIP3 from the complex resulting in a loss of energy transfer and thus a decrease in signal.
To test for the ability of compounds to inhibit the activity of PI3Kα (wild-type), exemplary compounds of formula (I) were dissolved in DMSO and directly distributed into 384-well plates at a volume of 0.5 μL. 14.5 μL of P110/P85α/PIP2 mixture in buffer (obtained from the Millipore kit) containing MgCl2 (40 mM) and DTT (5 mM) was added to compound wells and incubated for 60 min at room temperature. P110/P85α was expressed in SF9 insect cells and purified nickel column extraction. Five ng of wild-type P110/P85α was used in the assay. The kinase reaction was started by the addition of ATP. The assay concentrations of both PIP2 and ATP were 10 μM. The reaction mixture was incubated for 30 min at room temperature and was terminated by the addition of stop mix and detection mix. Fluorescence was measured at 615 and 665 nm upon excitation at 340 nm in a Victor™ V5 fluorometer (Perkin Elmer, USA). The fluorescence emission ratio at 665 to 615 nm, proportional to the kinase activity, was plotted against the compound concentration to generate dose-response curves and IC50 values were determined using GraphPad Prism® 5 software.
The activity of PI3 kinase isoforms β, γ and δ were assayed in a similar manner to the assay protocol described above for PI3Kα, by substituting the appropriate p110/p85 isoform for the p110α/p85α. Compounds of formula (I) caused inhibition of PI3 kinase isoforms β, γ and δ as determined by these assays. For example, the compounds of examples 3, 51, 54, 111, 113, 115, and 253 each caused inhibition of PI3 kinase isoform β with IC50 values <50 nM. The compounds of examples 104, 133, 146 and 152 each caused inhibition of PI3 kinase isoform β with IC50 values <500 nM. The compounds of examples 3, 51, 54, 104, 111, 113, 115, 133, 253, and 152 each caused inhibition of PI3 kinase isoform γ with IC50 values <500 nM. […] The compounds of examples 2, 3, 51, 54, 111, 113, and 253 each caused inhibition of PI3 kinase isoform […] with IC50 values >1 μM.

[2] = system: pAKT(T308) (phosphorylated at threonine 308), PC3 cells; experiment: In-cell Western assay, pAKT(T308) in PC3 cells; type: cell-based; details: Homo sapiens, PC-3, In-cell Western
Protocol: (§1) Cells from human prostate cancer cell line PC3 (American Type Culture Collection (ATCC), Manassas, Va. 20108 USA) were seeded at an optimal density of 22,000 cell/well in 96-well plates containing Ham's F12K medium (90 μL) and incubated overnight. The compound dilutions were carried out in 100% DMSO followed by a dilution in the medium. Test compounds were added in serial dilutions to the wells and incubated for 2 h. The cells were washed and fixed with 4% paraformaldehyde. After incubation at room temperature for 1 h in the dark, blocking was done for 2 h at room temperature. Primary antibodies for phosphorylated (p) AKT(5473) (phosphorylated at serine 473), pAKT(T308) (phosphorylated at threonine 308) and for pS6RP(S235/236) (phosphorylated at serine 235/236) (commercially available from Cell Signaling Technology®, whose protocol was followed for the in-cell western assay, were diluted to the required concentration and added to the corresponding wells followed by overnight incubation at 4° C. Eu-labeled rabbit (PE) (Perkin-Elmer USA catalog #AD0106) secondary antibody was added and incubated for 2 h at room temperature. Delfia® enhancement solution (cat #1244-105, Perkin Elmer USA) was subsequently added to the plate before taking the reading at 615 nm with excitation wavelength of 340 nm, after which 0.5 μg/mL of Hoechst® 33258 dye (Catalog #86140-5, Sigma) was added to the plate and fluorescence emission was read at 460 nm with 355 nm excitation, to evaluate the correction factor. IC50 values were calculated using a sigmoidal dose-response curve fit in GraphPad Prism® v5 software.

[3] = system: pS6RP(S235/236), PC3 cells; experiment: In-cell Western assay, pS6RP(S235/236) in PC3 cells; type: cell-based, human; details: Homo sapiens, PC-3, In-cell Western
Summary of the method: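 Overnight-seeded PC3 cells were treated 2 h with serially diluted compound, then fixed and immunostained with phospho-specific primary antibodies and Eu-labelled secondary. Time-resolved Eu signal read at 615 nm (ex 340 nm), normalised by Hoechst 33258 staining (ex 355/em 460 nm); IC50 from sigmoidal dose-response fit.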

[4] = system: pAKT(5473) (phosphorylated at serine 473), PC3 cells; experiment: In-cell Western assay, pAKT(5473) in PC3 cells; type: cell-based; details: Homo sapiens, PC-3, In-cell Western, read-out: pAkt-S473
Protocol: as §1

pS6RP in PC3 tumor = experiment: In vivo PK/PD study, PC3 tumor bearing mice, pS6RP; details: Mus musculus, 50 mg/kg po, at 3 and 8 hours
Protocol: PC3 cells were cultured at 37° C. in a 5% CO2 incubator using Hams F12 K medium. Ten million (10^7) cells were injected subcutaneously to the right flank region of athymic male mice (Harlan, age: 6-7 weeks, weight: about 20 g). Tumor bearing mice were randomized when the tumor volume reached about 250 mm^3 and three mice were used per each time point. Test compounds of formula (I) were formulated in 40% HPCD in 1×PBS, pH 7.4 and dosed orally at 50 mg/kg single dose (dose volume−10 mL/kg). Plasma and tumor samples were collected at 0 (vehicle control animals), 1, 4 and 24 hours post dosing. Blood was drawn (retro orbital) to a tube containing 0.2% EDTA for plasma collection. The tumor was excised from the mouse and immediately frozen in liquid nitrogen for PD analysis. Tumor and plasma drug concentrations were measured for PK analysis using LC-MS.
Snap frozen tumor samples were pulverized in a mortar (Belart) containing liquid nitrogen and tumor powder was stored at −80° C. until analysis. Pre coated ELISA kits (Cell Signaling Technology; pAKT(T308), CST#7135; pAKT(5473), CST#7134 and pS6RP, CST#7205) were used for PD analysis. Tumor powder was transferred to Eppendorf® tubes and lysis buffer (1 mL) was added to the powder. Protease and phosphatase inhibitors (SIGMA) and phenylmethanesulfonylfluoride (PMSF) were added to tumor powder and mixed by vortexing followed by sonication (15 sec). Samples were kept on an ice bath for 30 min. Supernatant was separated after centrifugation at 10,000 rpm for 20 min at 4° C. Supernatant was re-centrifuged and fresh supernatant was aliquoted to different tubes. Total protein was estimated using a BCA kit (Thermo Scientific) and 50 μg total protein was loaded to each well. ELISA analysis was carried out as per manufacturer's instructions. The detection for pAKT was based on chemiluminescence and pS6RP was based on absorbance. Qualitative assessments of the suppression of pAKT(T308), pAKT(5473), and pS6RP were also carried out by standard Western blot analyses.
For example, the compound of Example 1, at 50 mg/kg po, caused about 50% inhibition of pAkt(5473) at 1 and 4 hours and >50% inhibition of pS6RP at 1, 4 and 24 hours. Also, the compound of Example 2, at 50 mg/kg po, caused about 25-30% inhibition of pAkt(5473) at 4 and 24 hours and >50% inhibition of pS6RP at 1, 4 and 24 hours. The compound of example 51, at 30 mg/kg po, caused >50% inhibition of pS6RP at 2, 4 and 24 hours. Also, the compounds of examples 133, 146, 147, and 228, at 50 mg/kg po, each caused >50% inhibition of pS6RP at 3 and 8 hours.

CN(C)C(=O)c1ccc(NC(=O)Nc2ccc(-c3nc(N4CCOCC4)c4ccc(-c5cccc(S(C)(=O)=O)c5)cc4n3)cn2)cc1 [Example 3]
pIC50 (PC3 cells): 6.30 to 7.00
pIC50 [1]: > 7.30
pIC50 (mTOR kinase): 6.70 to 7.30
pIC50 (PI3 kinase isoform δ): < 6.00

CC(=O)Nc1cccc(-c2ccc3c(N4CCOCC4)nc(-c4ccc(NC(=O)Nc5ccc(C(=O)N(C)C)cc5)cc4)nc3c2)c1 [Example 49, 4-(3-{4-[7-(3-acetylamino-phenyl)-4-morpholin-4-yl-quinazolin-2-yl]-phenyl}-ureido)-N,N-dimethyl-benzamide]
pIC50 (PC3 cells): > 7.00
pIC50 [1]: > 7.30
pIC50 (mTOR kinase): > 7.30
pIC50 [2]: 6.30 to 7.00
pIC50 [3]: > 7.00
pIC50 [4]: 6.30 to 7.00

CN(C)C(=O)c1ccc(NC(=O)Nc2ccc(-c3nc(N4CCOCC4)c4ccc(-c5cccnc5F)cc4n3)cn2)cc1 [Example 54, 4-(3-{5-[7-(2-fluoro-pyridin-3-yl)-4-morpholin-4-yl-quinazolin-2-yl]-pyridin-2-yl}-ureido)-N,N-dimethyl-benzamide]
pIC50 (PC3 cells): 6.30 to 7.00
pIC50 [1]: > 7.30
pIC50 (mTOR kinase): 6.70 to 7.30
pIC50 (PI3 kinase isoform δ): < 6.00

CN(C)C(=O)c1ccc(NC(=O)Nc2ccc(-c3nc(N4CCOCC4)c4ncc(-c5cccnc5F)cc4n3)cn2)cc1 [Example 111, 4-(3-(5-(7-(2-fluoropyridin-3-yl)-4-morpholino-pyrido[3,2-d]pyrimidin-2-yl)pyridin-2-yl)ureido)-N,N-dimethyl-benzamide]
pIC50 (PC3 cells): 5.00 to 6.70
pIC50 [1]: > 7.30
pIC50 (mTOR kinase): > 7.30
pIC50 (PI3 kinase isoform δ): < 6.00
pIC50 [3]: 5.00 to 6.70
pIC50 [4]: 5.00 to 6.70

CN(C)C(=O)c1ccc(NC(=O)Nc2ccc(-c3nc(N4CCOCC4)c4cc(F)c(-c5cnn(C)c5)cc4n3)cn2)cc1 [Example 113, 4-(3-(5-(6-fluoro-7-(1-methyl-1H-pyrazol-4-yl)-4-morpholino-quinazolin-2-yl)pyridin-2-yl)ureido)-N,N-dimethyl-benzamide]
pIC50 (PC3 cells): 5.00 to 6.70
pIC50 [1]: > 7.30
pIC50 (mTOR kinase): 6.70 to 7.30
pIC50 (PI3 kinase isoform δ): < 6.00
pIC50 [3]: > 7.00
pIC50 [4]: > 7.00

COc1ncc(-c2ccc3c(N4CCOCC4)nc(-c4ccc(NC(=O)Nc5ccc(C(=O)N(C)C)cc5F)cc4)nc3c2)cn1 [Example 147, 3-fluoro-4-(3-(4-(7-(2-methoxypyrimidin-5-yl)-4-morpholino-quinazolin-2-yl)phenyl)ureido)-N,N-dimethyl-benzamide]
pIC50 [1]: 6.70 to 7.30
pIC50 (mTOR kinase): > 7.30
inhibition at 50 mg/kg (pS6RP in PC3 tumor): > 50%
pIC50 [2]: 5.00 to 6.70
pIC50 [4]: > 7.00

CN(C)C(=O)c1ccc(NC(=O)Nc2ccc(-c3nc(N4CCOCC4)c4ccc(-c5ccc(CO)o5)cc4n3)cc2)c(F)c1 [Example 228, 3-fluoro-4-(3-(4-(7-(5-(hydroxymethyl)furan-2-yl)-4-morpholino-quinazolin-2-yl)phenyl)ureido)-N,N-dimethyl-benzamide]
pIC50 [1]: > 7.30
pIC50 (mTOR kinase): > 7.30
inhibition at 50 mg/kg (pS6RP in PC3 tumor): > 50%
pIC50 [4]: 5.30 to 6.30

CN(C)C(=O)c1ccc(NC(=O)Nc2ccc(-c3nc(N4CCOCC4)c4ccc(-c5cccc(S(C)(=O)=O)c5)cc4n3)cn2)cc1F [Example 253, 2-fluoro-N,N-dimethyl-4-(3-(5-(7-(3-(methylsulfonyl)phenyl)-4-morpholino-quinazolin-2-yl)pyridin-2-yl)ureido)-benzamide]
pIC50 [1]: > 7.30
pIC50 (mTOR kinase): 5.00 to 6.70
pIC50 (PI3 kinase isoform δ): < 6.00
pIC50 [4]: > 7.00
